What was measured:
hLAT1 (LAT1, SLC7A5) [1] = target: T1, hLAT1 (LAT1, SLC7A5) (Homo sapiens, UniProt Q01650); assay: inhibition of [3H]-histidine uptake in proteoliposomes, Lineweaver-Burk; type: biochemical
T1 construct: recombinant hLAT1 WT alone (no CD98/SLC3A2), expressed in E. coli Rosetta(DE3)pLysS, purified on HisTrap (His tag implied), reconstituted in proteoliposomes with cholesterol

hLAT1 (LAT1, SLC7A5) [2] = target: T1, hLAT1 (LAT1, SLC7A5); assay: inhibition of [3H]-histidine uptake in proteoliposomes, dose-response; type: biochemical

T1 sequence (Q01650 whole entry): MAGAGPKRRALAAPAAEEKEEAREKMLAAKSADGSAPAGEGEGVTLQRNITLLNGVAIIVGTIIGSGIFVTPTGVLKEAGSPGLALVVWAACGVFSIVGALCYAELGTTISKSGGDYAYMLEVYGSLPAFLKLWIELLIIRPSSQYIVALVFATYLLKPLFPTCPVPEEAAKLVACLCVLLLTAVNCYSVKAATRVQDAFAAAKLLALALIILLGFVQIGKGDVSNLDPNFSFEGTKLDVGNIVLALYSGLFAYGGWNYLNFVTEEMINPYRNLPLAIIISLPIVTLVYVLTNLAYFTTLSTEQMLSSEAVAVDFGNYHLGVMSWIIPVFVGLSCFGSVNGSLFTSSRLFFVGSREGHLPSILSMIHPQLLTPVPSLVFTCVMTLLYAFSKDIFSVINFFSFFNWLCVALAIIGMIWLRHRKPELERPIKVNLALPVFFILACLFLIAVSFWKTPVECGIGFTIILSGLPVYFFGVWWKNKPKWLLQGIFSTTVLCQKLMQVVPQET

Ki (hLAT1 (LAT1, SLC7A5) [1]): 50 ± 19 µM | IC50 (hLAT1 (LAT1, SLC7A5) [2]): 79 ± 9 µM
Structure (SMILES): C=CC[S@+]([O-])C[C@H](N)C(=O)O [alliin]

Source: article PMC8987110, “The Nutraceutical Alliin From Garlic Is a Novel Substrate of the Essential Amino Acid Transporter LAT1 (SLC7A5)” (Frontiers in Pharmacology, 2022)
